# Laboratory results: US9409905B2, “Antibacterial compounds and methods for use” (PTC THERAPEUTICS, INC., priority 2011, dated 2016)
# What was measured:
# [1] = system: Escherichia coli (E. coli) BAS849; assay: Antibacterial activity, microbroth dilution MIC (Table 1); type: cell-based; conditions: microbroth dilution, super sensitive Gram-negative E. coli BAS849, read-out: MIC, BAS849
# Procedure, shortened: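 Using broth microdilution, MIC endpoints (μg/mL) mark where visible growth no longer appears; the panel spans sensitive and control Gram-negative strains plus a Gram-positive strain.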
# [2] = system: Staphylococcus aureus (S. aureus) 29213; assay: as above; type: cell-based; conditions: microbroth dilution, Gram-positive S. aureus 29213, read-out: MIC, 29213
# Procedure, shortened: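 Broth microdilution against S. aureus 29213, E. coli 25922 and hypersensitive E. coli BAS849. MIC in μg/mL is the lowest drug concentration preventing macroscopically visible growth under test conditions.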
# E. coli 25922 = assay: as above; type: cell-based, Escherichia coli; conditions: Escherichia coli; microbroth dilution; control Gram-negative E. coli 25922 strain; read-out: MIC, 25922
# Procedure, shortened: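 Lowest concentration stopping macroscopically visible growth under test conditions, by broth microdilution, defines the MIC (μg/mL).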
# E. coli LZ3111 = assay: Antibacterial activity, MIC, quinolone resistant strain (Table 2); type: cell-based; conditions: Escherichia coli, LZ3111, read-out: MIC LZ3111
# Procedure, shortened: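 Growth inhibition assessed by serial drug dilution in broth; endpoint was absence of macroscopically visible growth, reported as MIC, μg/mL.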
# E. coli ELZ4000 = assay: Antibacterial activity, MIC, multi-drug resistant clinical isolate (Table 3); type: cell-based; conditions: Escherichia coli, ELZ4000, read-out: MIC ELZ4000
# Description: (§1) The antibacterial activity from a microbroth dilution method may be presented as the minimum inhibitory concentration (MIC in μg/mL). The MIC value is the lowest concentration of drug which prevents macroscopically visible growth under test conditions.
# (§2) Antibacterial activity of test compounds against E. coli ELZ4000 and E. coli ELZ4251 multi-drug resistant clinical isolates is shown in Table 3.
# E. coli ELZ4251 = assay: as above; type: cell-based; conditions: Escherichia coli
# Description: as §1, §2
# [3] = system: Pseudomonas aeruginosa (P. aeruginosa) 27853; assay: Antibacterial activity, MIC (Table 5); type: cell-based; conditions: P. aeruginosa 27853, read-out: MIC, 27853
# Procedure, shortened: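 Using a microbroth dilution format, the minimum inhibitory concentration was recorded as the lowest tested concentration that stopped visible bacterial growth, expressed in μg/mL.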
# [4] = system: Acinetobacter baumannii (A. baumannii) BAA747; assay: Antibacterial activity, MIC (Table 4); type: cell-based; conditions: A. baumannii BAA747, read-out: MIC, BAA747
# Procedure, shortened: (§3)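 Broth microdilution; MIC (μg/mL) = lowest concentration with no macroscopically visible growth. Resistant strains: multi-drug resistant clinical isolates.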
# [5] = system: Klebsiella pneumoniae (K. pneumoniae) 35657; assay: Antibacterial activity, MIC (Table 4); type: cell-based; conditions: K. pneumoniae 35657, read-out: MIC, 35657
# Procedure, shortened: as §3
# A. baumannii MXX2240 = assay: Antibacterial activity, MIC, resistant strain (Table 4); type: cell-based; conditions: Acinetobacter baumannii, MXX2240; resistant A. baumannii MMX2240, multi-drug resistant clinical isolate; read-out: MIC, MMX2240
# Procedure, shortened: as §3
# K. pneumoniae MXX1232 = assay: as above; type: cell-based; conditions: Klebsiella pneumoniae, MXX1232; resistant K. pneumoniae MMX1232, multi-drug resistant clinical isolate; read-out: MIC, MMX1232
# Procedure, shortened: as §3
smiles,measurement,setting,value
"CCc1c(-c2ccc3c(c2)cc(CN(C)C2CCNCC2)n3C)[nH]c(=O)c(C(=O)O)c1O [Cpd 261, 5-ethyl-4-hydroxy-6-(1-methyl-2-((methyl(piperidin-4-yl)amino)methyl)-1H-indol-5-yl)-2-oxo-1,2-dihydropyridine-3-carboxylic acid]",MIC,[1],1 to 3.5 µg/mL
same,MIC,[2],12.5 to 150 µg/mL
same,MIC,E. coli 25922,3.5 to 12.5 µg/mL
same,MIC,E. coli LZ3111,3.5 to 12.5 µg/mL
same,MIC,E. coli ELZ4000,12.5 to 150 µg/mL
same,MIC,E. coli ELZ4251,12.5 to 150 µg/mL
same,MIC,[3],12.5 to 150 µg/mL
"CCc1c(-c2ccc3c(c2)cc(CN(C)C2CCCNC2)n3C)[nH]c(=O)c(C(=O)O)c1O (stereo not drawn) [Cpd 262, 5-ethyl-4-hydroxy-6-(1-methyl-2-((methyl(piperidin-3-yl)amino)methyl)-1H-indol-5-yl)-2-oxo-1,2-dihydropyridine-3-carboxylic acid]",MIC,[1],1 to 3.5 µg/mL
same,MIC,[2],12.5 to 150 µg/mL
same,MIC,E. coli 25922,3.5 to 12.5 µg/mL
same,MIC,E. coli LZ3111,3.5 to 12.5 µg/mL
same,MIC,E. coli ELZ4000,12.5 to 150 µg/mL
same,MIC,E. coli ELZ4251,12.5 to 150 µg/mL
same,MIC,[3],12.5 to 150 µg/mL
"CCc1c(-c2ccc3c(c2)cc(CN(CC2CC2)C2CCNCC2)n3C)[nH]c(=O)c(C(=O)O)c1O [Cpd 264, 6-(2-(((cyclopropylmethyl)(piperidin-4-yl)amino)methyl)-1-methyl-1H-indol-5-yl)-5-ethyl-4-hydroxy-2-oxo-1,2-dihydropyridine-3-carboxylic acid]",MIC,[1],1 to 3.5 µg/mL
same,MIC,[2],3.5 to 12.5 µg/mL
same,MIC,E. coli 25922,3.5 to 12.5 µg/mL
same,MIC,E. coli LZ3111,1 to 3.5 µg/mL
same,MIC,E. coli ELZ4000,12.5 to 150 µg/mL
same,MIC,E. coli ELZ4251,3.5 to 12.5 µg/mL
same,MIC,[3],12.5 to 150 µg/mL
"CCc1c(-c2ccc3c(c2)cc(CN2C[C@H]4CC[C@@H](N(C)C)[C@H]4C2)n3C)[nH]c(=O)c(C(=O)O)c1O [Cpd 278, 6-(2-(((3aR,4R,6aS)-4-(dimethylamino)hexahydrocyclopenta[c]pyrrol-2(1H)-yl)methyl)-1-methyl-1H-indol-5-yl)-5-ethyl-4-hydroxy-2-oxo-1,2-dihydropyridine-3-carboxylic acid]",MIC,[1],< 1 µg/mL
same,MIC,[2],3.5 to 12.5 µg/mL
same,MIC,E. coli 25922,1 to 3.5 µg/mL
same,MIC,E. coli LZ3111,3.5 to 12.5 µg/mL
same,MIC,E. coli ELZ4000,12.5 to 150 µg/mL
same,MIC,E. coli ELZ4251,12.5 to 150 µg/mL
same,MIC,[3],12.5 to 150 µg/mL
"CCc1c(-c2ccc3c(c2)c(C#N)c(OC)n3C)[nH]c(=O)c(C(=O)O)c1O [Cpd 362, 6-(3-cyano-2-methoxy-1-methyl-1H-indol-5-yl)-5-ethyl-4-hydroxy-2-oxo-1,2-dihydropyridine-3-carboxylic acid]",MIC,[1],1 to 3.5 µg/mL
same,MIC,[2],3.5 to 12.5 µg/mL
same,MIC,E. coli 25922,12.5 to 150 µg/mL
same,MIC,E. coli LZ3111,12.5 to 150 µg/mL
same,MIC,E. coli ELZ4251,12.5 to 150 µg/mL
same,MIC,[4],12.5 to 150 µg/mL
same,MIC,[5],12.5 to 150 µg/mL
same,MIC,A. baumannii MXX2240,12.5 to 150 µg/mL
same,MIC,K. pneumoniae MXX1232,12.5 to 150 µg/mL
same,MIC,[3],12.5 to 150 µg/mL
"CCc1cc(C(=O)O)c(=O)[nH]c1-c1ccc2occc2c1 [Cpd 364, 6-(benzofuran-5-yl)-5-ethyl-2-oxo-1,2-dihydropyridine-3-carboxylic acid]",MIC,[1],1 to 3.5 µg/mL
same,MIC,[2],12.5 to 150 µg/mL
same,MIC,E. coli 25922,12.5 to 150 µg/mL
same,MIC,E. coli LZ3111,12.5 to 150 µg/mL
same,MIC,E. coli ELZ4251,12.5 to 150 µg/mL
same,MIC,[4],12.5 to 150 µg/mL
same,MIC,[5],12.5 to 150 µg/mL
same,MIC,A. baumannii MXX2240,12.5 to 150 µg/mL
same,MIC,K. pneumoniae MXX1232,12.5 to 150 µg/mL
same,MIC,[3],12.5 to 150 µg/mL
"CCc1c(-c2ccc3occc3c2)[nH]c(=O)c(C(=O)O)c1O [Cpd 365, 6-(benzofuran-5-yl)-5-ethyl-4-hydroxy-2-oxo-1,2-dihydropyridine-3-carboxylic acid]",MIC,[1],< 1 µg/mL
same,MIC,[2],3.5 to 12.5 µg/mL
same,MIC,E. coli 25922,12.5 to 150 µg/mL
same,MIC,E. coli LZ3111,3.5 to 12.5 µg/mL
same,MIC,E. coli ELZ4251,3.5 to 12.5 µg/mL
same,MIC,[4],12.5 to 150 µg/mL
same,MIC,[5],12.5 to 150 µg/mL
same,MIC,A. baumannii MXX2240,1 to 3.5 µg/mL
same,MIC,K. pneumoniae MXX1232,12.5 to 150 µg/mL
same,MIC,[3],12.5 to 150 µg/mL
"CCc1cc(C(=O)O)c(=O)[nH]c1-c1ccc2sccc2c1 [Cpd 366, 6-(benzo[b]thiophen-5-yl)-5-ethyl-2-oxo-1,2-dihydropyridine-3-carboxylic acid]",MIC,[1],< 1 µg/mL
same,MIC,[2],12.5 to 150 µg/mL
same,MIC,E. coli 25922,3.5 to 12.5 µg/mL
same,MIC,E. coli LZ3111,12.5 to 150 µg/mL
same,MIC,E. coli ELZ4251,12.5 to 150 µg/mL
same,MIC,[4],12.5 to 150 µg/mL
same,MIC,[5],12.5 to 150 µg/mL
same,MIC,A. baumannii MXX2240,12.5 to 150 µg/mL
same,MIC,K. pneumoniae MXX1232,12.5 to 150 µg/mL
same,MIC,[3],12.5 to 150 µg/mL
"CCc1c(-c2ccc3sccc3c2)[nH]c(=O)c(C(=O)O)c1O [Cpd 367, 6-(benzo[b]thiophen-5-yl)-5-ethyl-4-hydroxy-2-oxo-1,2-dihydropyridine-3-carboxylic acid]",MIC,[1],< 1 µg/mL
same,MIC,[2],1 to 3.5 µg/mL
same,MIC,E. coli 25922,12.5 to 150 µg/mL
same,MIC,E. coli LZ3111,3.5 to 12.5 µg/mL
same,MIC,E. coli ELZ4251,12.5 to 150 µg/mL
same,MIC,[4],12.5 to 150 µg/mL
same,MIC,[5],12.5 to 150 µg/mL
same,MIC,A. baumannii MXX2240,3.5 to 12.5 µg/mL
same,MIC,K. pneumoniae MXX1232,12.5 to 150 µg/mL
same,MIC,[3],12.5 to 150 µg/mL
